Measurements as given in US20230174608A1, “Polypeptide Derivative Having Dual Receptor Agonistic Action and Use Thereof” (TIANJIN INSTITUTE OF PHARMACEUTICAL RESEARCH CO., LTD., priority 2020, published 2023).
Where a SMILES comes first, the peptide text is derived from it.

How the values were obtained:
[1] = tested on: diet-induced obesity (DIO) mice; test: DIO model mice, weight after 2 weeks of administration; assay type: in vivo, C57BL/6N mice; details: 30 nmol/kg s.c. once a day, 14 days
Source text: Method: C57BL/6N mice were fed with H10060 high-fat diets to obtain diet-induced obesity (DIO) models, and mice in a control group (n=5) were fed with standard diets. One day before the first administration, the mice in the model group were randomly divided into 6 groups according to their weights (within a range of 40.5-50.5 g), i.e., a model control group, a positive control group, and test compound groups (dgc003, dgc004, dgc010, and dgc017), respectively, 5 mice in each group, which were administered once a day by subcutaneous injection. Saline was subcutaneously injected into each mouse in the blank control group and the model control group every day. The administration was performed for 14 days. The positive control drug and the test compounds were administered at a dose of 30 nmol/kg, and the administration volume for each group was 0.005 mL/g weight. The mice were weighed before each administration, and 72-h food intake was weighed every three days.

[2] = biological target: T1, GCGR (Homo sapiens, UniProt P47871); test: GC receptor-mediated cAMP production in vitro; assay type: cell-based; details: HEK293 cell line stably expressing GCGR
T1 construct: expressed in transfected cells
Summary of the method: (§1)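 HEK293 cells stably expressing human GLP-1R or GCGR are stimulated with compound for 30 min in the dark in serum-free medium with 0.5 mM IBMX, with test dilutions spanning 1 μM down to 10^−3 nM. cAMP is detected after a 60 min room-temperature reaction as the 665/615 nm ratio.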

[3] = tested on: glucose loaded normal mice; test: Glucose loading test on normal mice after single administration; assay type: in vivo, Kunming mice
Summary of the method: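 Male Kunming mice (20-22 g), 5 per group, fasted 6 h, received compound or semaglutide at 30 nmol/kg or saline. Glucose 2.5 g/kg given intragastrically 60 min post-dose; blood glucose measured 30 min after glucose loading.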

[4] = biological target: T2, GLP-1R (Homo sapiens, UniProt P43220); test: GLP-1 receptor-mediated cAMP production in vitro; assay type: cell-based; details: HEK293 cell line stably expressing GLP-1R
T2 construct: expressed in transfected cells
Summary of the method: as §1

T1 sequence (P47871 26-477, species assumed): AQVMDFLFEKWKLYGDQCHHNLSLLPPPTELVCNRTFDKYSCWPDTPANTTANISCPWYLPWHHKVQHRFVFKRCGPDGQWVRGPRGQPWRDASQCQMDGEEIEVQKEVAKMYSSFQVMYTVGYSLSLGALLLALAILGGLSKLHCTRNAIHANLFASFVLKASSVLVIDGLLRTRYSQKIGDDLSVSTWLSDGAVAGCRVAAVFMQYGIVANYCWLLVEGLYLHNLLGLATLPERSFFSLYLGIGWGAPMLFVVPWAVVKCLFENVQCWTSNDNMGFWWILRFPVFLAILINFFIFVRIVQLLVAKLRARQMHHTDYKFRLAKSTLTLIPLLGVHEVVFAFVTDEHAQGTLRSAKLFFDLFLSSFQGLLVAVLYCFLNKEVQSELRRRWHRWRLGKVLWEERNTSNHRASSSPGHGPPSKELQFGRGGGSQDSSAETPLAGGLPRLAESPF
T2 sequence (P43220 24-463, species assumed): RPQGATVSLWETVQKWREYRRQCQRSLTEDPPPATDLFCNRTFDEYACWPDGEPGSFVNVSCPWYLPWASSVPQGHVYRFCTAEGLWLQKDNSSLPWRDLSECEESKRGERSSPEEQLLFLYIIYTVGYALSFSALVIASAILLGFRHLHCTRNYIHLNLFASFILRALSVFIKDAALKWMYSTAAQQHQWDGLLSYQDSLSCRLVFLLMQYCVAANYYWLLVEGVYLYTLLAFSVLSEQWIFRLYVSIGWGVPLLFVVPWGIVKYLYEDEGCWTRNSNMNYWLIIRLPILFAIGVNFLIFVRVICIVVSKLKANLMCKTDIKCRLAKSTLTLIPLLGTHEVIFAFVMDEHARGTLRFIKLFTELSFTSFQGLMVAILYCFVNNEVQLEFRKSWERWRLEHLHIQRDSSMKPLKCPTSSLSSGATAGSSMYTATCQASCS

EC50 [2]: 1.04 nM
EC50 [4]: 0.291 nM
Structure (SMILES): CCCCCCCCCCCCCCCC(=O)N[C@@H](CCC(=O)NCCCC[C@H](NC(=O)[C@H](C)NC(=O)[C@H](C)NC(=O)[C@H](CCCNC(=N)N)NC(=O)[C@H](CCC(=O)O)NC(=O)[C@H](CC(=O)O)NC(=O)[C@H](CC(C)C)NC(=O)[C@H](Cc1ccc(O)cc1)NC(=O)[C@H](CCCCN)NC(=O)[C@H](CO)NC(=O)[C@H](Cc1ccc(O)cc1)NC(=O)[C@H](CC(=O)O)NC(=O)[C@H](CO)NC(=O)[C@@H](NC(=O)[C@H](Cc1ccccc1)NC(=O)[C@@H](NC(=O)CNC(=O)[C@H](CCC(N)=O)NC(=O)C(C)(C)NC(=O)[C@@H](N)Cc1c[nH]cn1)[C@@H](C)O)[C@@H](C)O)C(=O)N[C@@H](CCC(=O)O)C(=O)N[C@@H](Cc1ccccc1)C(=O)N[C@H](C(=O)N[C@@H](C)C(=O)N[C@@H](Cc1c[nH]c2ccccc12)C(=O)N[C@@H](CC(C)C)C(=O)N[C@@H](CCC(=O)O)C(=O)N[C@@H](C)C(=O)NCC(=O)NCC(N)=O)[C@@H](C)CC)C(=O)O [dgc003] (HELM PEPTIDE1{H.[Aib].Q.G.T.F.T.S.D.Y.S.K.Y.L.D.E.R.A.A.K.E.F.I.A.W.L.E.A.G.G.[am]}|PEPTIDE2{[CCCCCCCCCCCCCCCC(=O)[*:2]].[gGlu]}$PEPTIDE1,PEPTIDE2,20:R3-2:R2$$$V2.0; N-terminus assumed)
Weight decreasing rate by the last administration [1]: 16.7%
Blood glucose reduction rate (%) ([3]; 30 nmol/kg single dose, after glucose loading, versus model control group): 48.12%
Blood glucose level after glucose loading ([3]; 30 nmol/kg single dose, glucose 2.5 g/kg intragastric 60 min after administration, measured 30 min after loading, n=5): 8.82 ± 1.63 mmol/L
Fasting blood glucose level ([3]; normal mice fasted 6 h, 30 nmol/kg group, n=5): 4.20 ± 0.97 mmol/L
